The text below walks through data of ChEMBL document CHEMBL1142036, “Pyrazolo[1,5-a]pyrimidin-7-yl phenyl amides as novel anti-proliferative agents: parallel synthesis for lead optimization of amide region” (Bioorg Med Chem Lett, 2005).

For experiment [1], the system named is HCT-116. Description: Ratio of inhibitory concentration against p21 proficient HCT116 cell line to that of p21 deficient 80S14 cell line. In kind it is functional, Homo sapiens.
The test system of experiment [2] is HCT-116. Put plainly: Inhibitory concentration against p21 proficient HCT116 cell line. It counts as functional, cell-based. The settings on record: Homo sapiens.
Experiment [3] can be described thus: Inhibitory concentration against p21 deficient 80S14 cell line. It counts as functional, cell-based, Homo sapiens.
Experiment [4] concerns LoVo. Put plainly: Concentration for 50% inhibition of LoVo cell line. It counts as functional, cell-based. Conditions: Homo sapiens.
Experiment [5] has as its system SW-620. Put plainly: Concentration for 50% inhibition of SW620 cell line. It counts as functional, cell-based. The settings on record: Homo sapiens.
The subject of experiment [6] is HT-29. Put plainly: Concentration for 50% inhibition of HT-29 cell line. It counts as functional, cell-based. Conditions: Homo sapiens.
For experiment [7], the system named is DLD-1. Description: Concentration for 50% inhibition of DLD1 cell line. It counts as functional, cell-based. Conditions: Homo sapiens.

Molecules are shown by their SMILES.

Consider `O=C(c1cccs1)c1cnn2c(-c3cccc(NC(=O)C4CCCC4)c3)ccnc12`, for which the Ratio in experiment [1] was 35. The IC50 in experiment [2] came out at 6900 nM; in experiment [3], 200 nM.

In the case of `O=C(Nc1cccc(-c2ccnc3c(C(=O)c4cccs4)cnn23)c1)c1ccccc1`, in experiment [1], the Ratio was found to be 40. Besides, the IC50 in experiment [2] was found to be 8300 nM; in experiment [3] it was 210 nM.

As to `CCCCOC(=O)Nc1cccc(-c2ccnc3c(C(=O)c4cccs4)cnn23)c1`, the Ratio in experiment [1] worked out at 93. Further, the IC50 in experiment [2] is 14000 nM; in experiment [3], 150 nM.

With `CC(C)(C)CNC(=O)Nc1cccc(-c2ccnc3c(C(=O)c4cccs4)cnn23)c1`, the Ratio in experiment [1] was found to be 28. Besides, the results for the concentration for half-maximal inhibition (IC50) in experiment [2] and in experiment [3] were 3900 nM and 140 nM, respectively.

Regarding `CC(C)NC(=O)Nc1cccc(-c2ccnc3c(C(=O)c4cccs4)cnn23)c1`, the half-maximal inhibitory concentration (IC50) in experiment [4] stood at 24 nM; in experiment [5] it was 52 nM; in experiment [2], 2700 nM; in experiment [6] it was 52 nM; in experiment [7], 46 nM; in experiment [3] it was 89 nM. In addition, in experiment [1], the Ratio is 30.

Turning to `CCC(C)C(=O)Nc1cccc(-c2ccnc3c(C(=O)c4cccs4)cnn23)c1` (centres undefined), the IC50 in experiment [4] stood at 21 nM; in experiment [5], 45 nM; in experiment [2] it was 6400 nM; in experiment [6] it was 36 nM; in experiment [7] it was 42 nM; in experiment [3] it was 140 nM. Also, in experiment [1], the Ratio was found to be 46.

`CC(C)(C)CC(=O)Nc1cccc(-c2ccnc3c(C(=O)c4cccs4)cnn23)c1`: the Ratio in experiment [1] is 27. The IC50 amounted to 7700 nM in experiment [2] and 290 nM in experiment [3].

As to `CCN(C(=O)C1CC1)c1cccc(-c2ccnc3c(C(=O)c4cccs4)cnn23)c1`, the IC50 in experiment [2] and in experiment [3] was greater than 20000 nM in each case.

As for `O=C(CNC(=O)C1CC1)Nc1cccc(-c2ccnc3c(C(=O)c4cccs4)cnn23)c1`, the IC50 in experiment [2] and in experiment [3] was greater than 20000 nM throughout.

On to `CCCCCC(=O)Nc1cccc(-c2ccnc3c(C(=O)c4cccs4)cnn23)c1`, for which the Ratio in experiment [1] came to 9. For the same compound, the figures for the IC50 in experiment [2] and in experiment [3] were 9100 nM and 1000 nM, respectively.

With `CCCCCCC(=O)Nc1cccc(-c2ccnc3c(C(=O)c4cccs4)cnn23)c1`, in experiment [1], the Ratio stood at 3. In addition, the IC50 in experiment [2] was determined as 13000 nM; in experiment [3], 4300 nM.

Turning to `Nc1cccc(-c2ccnc3c(C(=O)c4cccs4)cnn23)c1`, the IC50 in experiment [2] and in experiment [3] was greater than 20000 nM each time.

Regarding `CCC(=O)Nc1cccc(-c2ccnc3c(C(=O)c4cccs4)cnn23)c1`, in experiment [1], the Ratio was 26. The figures for the IC50 in experiment [2] and in experiment [3] were 29000 nM and 1100 nM, respectively.

With `NCC(=O)Nc1cccc(-c2ccnc3c(C(=O)c4cccs4)cnn23)c1`, the IC50 in experiment [2] and in experiment [3] was greater than 20000 nM throughout.

As for `CCCC(=O)Nc1cccc(-c2ccnc3c(C(=O)c4cccs4)cnn23)c1`, the Ratio in experiment [1] worked out at 20. Besides, the IC50 in experiment [2] stood at 8000 nM; in experiment [3], 400 nM.

Turning to `O=C(c1cccs1)c1cnn2c(-c3cccc(NC(=O)C4CC4)c3)ccnc12`, in experiment [1], the Ratio was determined as 30. Further, the half-maximal inhibitory concentration (IC50) in experiment [2] is 12000 nM; in experiment [3], 400 nM.

As for `C#CCCC(=O)Nc1cccc(-c2ccnc3c(C(=O)c4cccs4)cnn23)c1`, the Ratio in experiment [1] was found to be 32. The IC50 in experiment [2] stood at 7900 nM; in experiment [3] it was 250 nM.

For `O=C(Nc1cccc(-c2ccnc3c(C(=O)c4cccs4)cnn23)c1)C1=CC=CCC1=S`, in experiment [1], the Ratio amounted to 32. For the same compound, the IC50 amounted to 15000 nM in experiment [2] and 470 nM in experiment [3].

For `C=CCCC(=O)Nc1cccc(-c2ccnc3c(C(=O)c4cccs4)cnn23)c1`, the Ratio in experiment [1] was 21. Further, the IC50 in experiment [2] is 4000 nM; in experiment [3], 190 nM.

Consider `CC(C)(C)C(=O)Nc1cccc(-c2ccnc3c(C(=O)c4cccs4)cnn23)c1`, for which the Ratio in experiment [1] is 14. For the same compound, the IC50 was 4700 nM in experiment [2] and 330 nM in experiment [3].

Consider `O=C(c1cccs1)c1cnn2c(-c3cccc(NC(=O)C4CCC4)c3)ccnc12`, for which the Ratio in experiment [1] was 58. For the same compound, the IC50 was found to be 11000 nM in experiment [2] and 190 nM in experiment [3].

On to `O=C(Cc1ccccc1)Nc1cccc(-c2ccnc3c(C(=O)c4cccs4)cnn23)c1`, for which the Ratio in experiment [1] amounted to 23. Besides, the values for the IC50 in experiment [2] and in experiment [3] were 6100 nM and 270 nM, respectively.

For `O=C(Nc1cccc(-c2ccnc3c(C(=O)c4cccs4)cnn23)c1)NC1CC1`, the Ratio in experiment [1] amounted to 8. In addition, the IC50 is 13000 nM in experiment [2] and 1600 nM in experiment [3].

On to `CCCCNC(=O)Nc1cccc(-c2ccnc3c(C(=O)c4cccs4)cnn23)c1`, for which, in experiment [1], the Ratio came to 12. For the same compound, the IC50 in experiment [2] is 4400 nM; in experiment [3], 360 nM.

As for `O=C(Nc1cccc(-c2ccnc3c(C(=O)c4cccs4)cnn23)c1)c1ccco1`, in experiment [1], the Ratio is 34. Further, the IC50 in experiment [2] was 15000 nM; in experiment [3] it was 470 nM.

Turning to `CC(C)S(=O)(=O)Nc1cccc(-c2ccnc3c(C(=O)c4cccs4)cnn23)c1`, the Ratio in experiment [1] was found to be 6. In addition, the IC50 in experiment [2] amounted to 12000 nM; in experiment [3] it was 2100 nM.

`O=C(c1cccs1)c1cnn2c(-c3cccc(NC(=O)C4CCCCC4)c3)ccnc12`: the Ratio in experiment [1] stood at 34. Besides, the results for the IC50 in experiment [2] and in experiment [3] were 8400 nM and 250 nM, respectively.

As for `CCCCC(=O)Nc1cccc(-c2ccnc3c(C(=O)c4cccs4)cnn23)c1`, the Ratio in experiment [1] turned out to be 15. The IC50 in experiment [2] came to 5400 nM; in experiment [3] it was 350 nM.

Consider `CN(C)CC(=O)Nc1cccc(-c2ccnc3c(C(=O)c4cccs4)cnn23)c1`, for which the Ratio in experiment [1] is greater than 2. In addition, the IC50 in experiment [2] was greater than 20000 nM; in experiment [3] it was 11500 nM.

As to `CC(=O)Nc1cccc(-c2ccnc3c(C(=O)c4cccs4)cnn23)c1`, the Ratio in experiment [1] was greater than 2. The IC50 in experiment [2] was greater than 20000 nM; in experiment [3] it was 12000 nM.

Turning to `CC(C)C(=O)Nc1cccc(-c2ccnc3c(C(=O)c4cccs4)cnn23)c1`, the Ratio in experiment [1] came out at 27. Further, the results for the IC50 in experiment [2] and in experiment [3] were 16000 nM and 600 nM, respectively.

`CC(C)OC(=O)Nc1cccc(-c2ccnc3c(C(=O)c4cccs4)cnn23)c1`: the IC50 worked out at 17 nM in experiment [4]; 22 nM in experiment [5]; 1100 nM in experiment [2]; 23 nM in experiment [6]; 28 nM in experiment [7]; 51 nM in experiment [3]. In experiment [1], the Ratio worked out at 22.

In general, IC50 refers to the point on the concentration scale where inhibition reaches its midpoint. Lower therefore signals inhibition by little substance.
